# Measured values taken from PubChem BioAssay AID1996.
# Details: buffer; pH 7.4; 200.0 µM
row,SMILES,solubility kinetic [µg/mL]
1,CN1CCN(C(=O)C23CC4CC(C)(CC(C)(C4)C2)C3)CC1.Cl,47.8
2,Cl.Cn1cccc1CNCC(O)c1ccccc1 (stereo unspecified),> 40
3,CN(C(=O)COC(=O)c1cccc(Cl)c1)C1CCS(=O)(=O)C1 (stereo unspecified),> 51.9
4,O=c1[nH]c2ccc([N+](=O)[O-])cc2nc1/C=C(\O)c1ccccc1,2.3
5,COCCNC(=O)c1cc2cc(Cl)cc(Cl)c2oc1=O,9.2
6,Brc1ccc(OCc2cn3ccccc3n2)cc1,5.3
7,O=C(COC(=O)c1cccc([N+](=O)[O-])c1)NCc1cccs1,36
8,O=C(CN1CCN(Cc2cccc(F)c2)CC1)NCc1ccccc1,43.1
9,CC(O)CNC(=O)Cc1cc(=O)[nH]c(=O)[nH]1 (stereo unspecified),> 34.1
10,Cc1cccn2c(=O)c(C=O)c(Cl)nc12,> 33.4
11,Cc1cccc(OCc2cc(-c3ccccc3)no2)c1C,< 0.6
12,CCn1c(SCC(=O)NC2CC2)nnc1-c1ccccn1,> 45.5
13,Cc1cccc(C(=O)Oc2ccccc2C(=O)N2CCOCC2)c1,> 48.8
14,COc1cccc(CN2C(=O)c3ccccc3S2(=O)=O)c1,30
15,COCCn1c(=S)[nH]c2sc3c(c2c1=O)CCC(C)C3 (stereo unspecified),40.4
16,Cn1nc(C(=O)NNC(=O)c2cccc(Cl)c2)ccc1=O,> 46
17,N/C(=N\OC(=O)c1ccc(Br)o1)c1cccnc1,39.1
18,Cc1ccc2sc(N(CCN(C)C)C(=O)/C=C/c3cccs3)nc2c1C.Cl,< 0.3
19,COc1cccc(OC)c1C(=O)O/N=C(\N)c1ccncc1,42.2
20,CCC(=O)N1CCN=C1SCc1cccc(C(F)(F)F)c1,40.8
21,O=C(c1ccccc1)N1CCC2(CC1)NCCc1[nH]cnc12,42.7
22,Cc1nn(CC(=O)NC2CC2)c(C)c1S(=O)(=O)NC(C)(C)C,> 49.3
23,CCOP(=O)(OCC)C(NC(=O)Nc1ccc(C)cc1)C(N)=O (stereo unspecified),> 51.5
24,C=CCn1c(NCc2ccc(OC)cc2)nc2ccccc21,33.7
25,O=C(NCc1ccccc1)c1c[nH]c2ccccc2c1=O,39.3

row,SMILES,solubility kinetic [µg/mL]
1,O=C(OCc1nc2ccsc2c(=O)[nH]1)c1ccco1,> 41.4
2,COC(=O)c1ccc(S(=O)(=O)NCc2ccccn2)n1C,39.6
3,Cc1cccc(OCC(=O)N2CCCc3ccccc32)c1,30.3
4,O=C(O)/C(=C\c1ccco1)NC(=O)c1ccc(Br)o1,> 48.9
5,Cc1cccc(NC(=O)CNC(=O)c2ccc3nc[nH]c3c2)c1C,> 48.4
6,CC(=O)Nc1ccc(NC(=O)/C=C/c2ccc(Cl)cc2)cc1,< 0.3
7,CCN(CC(=O)NCC(=O)Nc1cccc(C)c1C)Cc1ccccc1,> 53
8,CCCOc1cccc(C(=O)NCCNC(=O)c2cnccn2)c1,48
9,O=c1c2[nH]c3cccc(Cl)c3c2ncn1Cc1ccco1,0.5
10,CCCN1C(=O)/C(=C/c2nc3ccccc3c(=O)[nH]2)c2cc(C)ccc21,< 0.2
11,COc1ccc(Nc2ccncc2[N+](=O)[O-])cc1,> 36.8
12,COC(=O)c1ccc(CN2CCCCC2)cc1,28.9
13,COc1ccc(CNC(=O)c2coc(=O)c3ccccc23)cc1,30.8
14,Cc1ccc(NC(=O)CN2CCOCC2)c(Br)c1,> 47
15,COc1ccc(-c2cc(C(=O)NC3CCCC3)no2)cc1,0.4
16,Cc1ccc(C(=O)N2CCCCC2)cc1S(=O)(=O)N1CCCC1,> 50.5
17,Nc1ccc(-c2ccc(N)c(C(=O)O)c2)cc1C(=O)O,> 40.8
18,NNC(=O)c1ccc(N2CCCCCC2)c([N+](=O)[O-])c1,> 41.7
19,OC(c1nc2ccc(F)cc2[nH]1)C(O)c1nc2ccc(F)cc2[nH]1 (stereo unspecified),> 49.5
20,O=C(Cn1c(=O)oc2ccc(Cl)cc21)Nc1ccon1,6.2
21,Cc1ccc(S(=O)(=O)NCc2ccccc2C)cc1,20.4
22,O=C(c1ccc(Oc2ccc([N+](=O)[O-])cc2)cc1)N1CCCCCC1,34.4
23,O=C(Nc1ccc(Br)cc1)N1CCCC(O)C1 (stereo unspecified),> 44.9
24,O=S(=O)(c1ccc(Cl)cc1)N1CCNCC1,> 39.1
25,O=S(=O)(Nc1ccccc1O)c1cccc2cccnc12,43

row,SMILES,solubility kinetic [µg/mL]
1,NC(=O)C1CCCN1 (stereo unspecified),> 17.1
2,S=C(NCc1ccccc1)NCc1cccc(Cl)c1,23.2
3,Cc1ccc(S(=O)(=O)NC(=O)Nc2cc(C(C)(C)C)on2)cc1,> 50.6
4,COc1cc(C2C(C#N)=C(N)Oc3cc(C)oc(=O)c32)cc(OC)c1OC (stereo unspecified),> 55.6
5,CC(=O)Nc1ccc(NC(=O)COc2ncnc3ccccc23)cc1,> 50.5
6,O=C(COC(=O)c1cc([N+](=O)[O-])ccc1Cl)NC1CCCC1,> 49
7,O=c1oc2cccnc2n1CCS(=O)(=O)c1ccc(F)cc1,45
8,CC(=NCCC1=CCCCC1)c1c(O)n(-c2ccccc2)c(=O)[nH]c1=O,10
9,Cc1csc(=O)n1CC(=O)Nc1ccc(S(C)(=O)=O)cc1,> 49
10,CCc1cccc(CC)c1C(OC(C)=O)c1cccnc1 (stereo unspecified),30.7
11,Cc1c(C(=O)NC2CCOC2)oc2c(F)cccc12 (stereo unspecified),> 39.5
12,CSC1=NCCN1C(=O)c1ccc(C)cc1,> 35.1
13,COc1cccc(NC(=O)c2cncs2)c1,32.9
14,O=C(COC(=O)c1ccccc1Br)NCC1CCCO1 (stereo unspecified),> 51.3
15,c1ccc(N2CCN(Cc3cnc(N4CCOCC4)s3)CC2)cc1,> 51.7
16,O=C(NCCc1ccc(Cl)cc1Cl)c1cccnc1,> 44.3
17,Cc1ccccc1N1C(=O)Cc2ccccc2C1=O,35.4
18,O=C(O)c1ccc(NC(=O)c2ccccc2NC(=O)c2cccc(F)c2)cc1,> 56.8
19,Cc1ccc(C)c(S(=O)(=O)NCCCc2ccccc2)c1,14.2
20,COC(=O)CCc1nc2ccccc2nc1OC,> 36.9
21,COc1ccc(NC(=O)CN2C(=O)CSC2=O)cc1,> 42
22,O=C(Nc1cc(S(=O)(=O)N2CCOCC2)ccc1N1CCOCC1)c1ccccc1Cl,> 69.9
23,CN(Cc1ccccc1Cl)C(=O)c1cc2ccccc2o1,13.7
24,Cc1nc(SCc2cccc(C(=O)O)c2)nc2c1CCCC2,> 47.2
25,CC(C)(C)c1ccc(NC(=O)COC(=O)C2CCCC2)cc1,13.5

row,SMILES,solubility kinetic [µg/mL]
1,CNC(=O)COc1ccc2oc3c(c2c1)CCCC3,31
2,CC1CN(C(=O)CCNC(=O)c2ccc(Cl)cc2)CC(C)O1 (stereo unspecified),42.1
3,O=Cc1ccc(-c2cccc([N+](=O)[O-])c2)o1,6.3
4,Cc1nc2ccc(NS(=O)(=O)c3ccc(F)cc3)cc2s1,44.3
5,O=C(Cn1cc(C(F)(F)F)cc(Cl)c1=O)NCc1ccccc1,7.8
6,FC(F)Oc1ccc(NC(=S)NC2CCCCCCC2)cc1,0.7
7,COC(=O)C1=C(N)OC2=C(C(=O)CC(C)(C)C2)C1c1ccccc1OC (stereo unspecified),> 53.6
8,O=C1c2cccc3cc([N+](=O)[O-])cc(c23)C(=O)N1CC1CCCO1 (stereo unspecified),5.7
9,O=C(OCC(=O)N1CCCC1)c1cc(=O)c2ccccc2o1,> 45.2
10,Cc1cccc(NC(=O)CSc2ncnc3sc(C)cc23)c1,0.7
11,O=C(Nc1cc2c(cc1[N+](=O)[O-])OCCO2)c1cccnc1,5.1
12,CSc1ccc(C2Nc3cccc4cccc(c34)N2)cc1,2.4
13,Cc1cc(Nc2ccc(Cl)cc2)nc(N2CCOCC2)n1,1.8
14,COc1ccc(CNC(=O)C(=O)NCc2cccnc2)cc1,20.9
15,Cc1ccnc(SCC(=O)c2cccs2)n1,> 37.5
16,CC(C)c1ccc(NC2=CC(=O)CC(C)(C)C2)cc1,2.6
17,CCC1(CC)C(=O)N(C)C(=O)NC1=NC,> 31.7
18,CCN(CC(=O)NCc1ccc(F)cc1)S(=O)(=O)c1ccc(Cl)s1,10.5
19,S=C(NCc1ccco1)N1CCN(c2ccccc2Cl)CC1,19.5
20,O=C(CN1CCCC1)NCC(=O)Nc1ccc(F)cc1,> 41.9
21,O=C(c1cc(N2CCOCC2)c(F)cc1[N+](=O)[O-])N1CCOCC1,48
22,CC(=O)c1ccc(S(=O)(=O)Nc2ccc3c(c2)OCO3)cc1,> 47.9
23,O=S(=O)(NC(=S)Nc1ccccc1)c1ccc(F)cc1,> 46.6
24,COC(=O)c1c(C)[nH]c(C(=O)OCC(=O)NC(C)(C)C)c1C,> 46.6
25,CN1CCCN(C(=O)CNC(=O)c2ccccc2F)CC1,> 44

row,SMILES,solubility kinetic [µg/mL]
1,COc1cccc(C(=O)N2CCOCC2)c1OC,> 37.7
2,COc1cc2c(cc1OC)C(c1ccccc1C(F)(F)F)CC(=O)N2 (stereo unspecified),< 0.8
3,Cc1nc(C)c(C(=O)OCC(=O)Nc2ccccc2)s1,> 43.6
4,COc1ccc(NC(=O)c2nc(SC)ncc2Cl)cc1,8.2
5,CN1CCN(c2nc3ccccn3c(=O)c2C=C(C#N)C#N)CC1,48
6,COC(=O)c1ccc(C2NC(=O)CCC2[N+](=O)[O-])cc1 (stereo unspecified),> 41.7
7,CCOC(=O)C1(Cc2cccc(F)c2)CCN(C(=O)COC)CC1,47.2
8,O=C(Oc1c(-c2ccccc2)c(=O)n2c3c(cccc13)CC2)c1cccc([N+](=O)[O-])c1,5.2
9,COc1cccc(NC(=O)COC(=O)CCSc2ccccc2)c1,39.8
10,CCn1c(SCC(=O)NCC2CCCO2)nc2ccccc21 (stereo unspecified),> 47.9
11,Cc1nc2ccc([N+](=O)[O-])cc2c(=O)n1Cc1ccc([N+](=O)[O-])cc1,2.5
12,COc1ccc([N+](=O)[O-])cc1NC(=O)C1(c2ccccc2)CCOCC1,6.7
13,O=C(CSc1ncccn1)NC(=O)c1ccccc1,33.1
14,O=C(Nc1nnc2n1CCS2)c1ccc(Br)o1,> 47.3
15,C=CCn1c(CCC)nc2ccccc21,> 30
16,O=C(COC(=O)CCC(=O)c1ccc(F)cc1)NCc1ccco1,> 50
17,CC1(C)C2CCC(C2)C1(C)N=C1OC(CCl)CS1 (stereo unspecified),5.9
18,C#CC1(NC(=O)NC(=O)c2c(F)cccc2F)CCCCC1,0.6
19,CCCN1C(=O)c2ccc(C(=O)Nc3ccccc3C(=O)O)cc2C1=O,> 52.9
20,CC(C)c1ccc(NC(=O)CNCC(c2ccccc2)N(C)C)cc1 (stereo unspecified),32.9
21,N#Cc1ccc2nc3c(nc2c1)CCCC3,30.2
